Results taken from ChEMBL document CHEMBL3045957, “Synthesis and antimicrobial activity of some new 3[5-(4-substituted) phenyl-1,3,4-oxadiazole-2yl]-2- styrylquinazoline-4(3H)-ones” (2008).
≈ marks a conversion by molar mass, not a printed value. Calls of active or inactive are those of the source. The calls are words filed in the database; no cut-off is given here.

Columns and labels:
Format in all cases: functional
[1] = tested on: Fusarium oxysporum; test: Antifungal activity against Fusarium oxysporum by liquid dilution technique
[2] = tested on: Aspergillus niger; test: Antifungal activity against Aspergillus niger MTCC 1344 by liquid dilution technique
[3] = tested on: Escherichia coli; test: Antibacterial activity against Escherichia coli MTCC 40 by liquid dilution technique
[4] = tested on: Pseudomonas aeruginosa; test: Antibacterial activity against Pseudomonas aeruginosa MTCC 424 by liquid dilution technique
[5] = tested on: Bacillus subtilis; test: Antibacterial activity against Bacillus subtilis MTCC 619 by liquid dilution technique
[6] = tested on: Staphylococcus aureus; test: Antibacterial activity against Staphylococcus aureus MTCC 96 by liquid dilution technique

MIC [1] | MIC [2] | MIC [3] | MIC [4] | MIC [5] | MIC [6] | SMILES
inactive | inactive | inactive | inactive | inactive | inactive | COc1ccc(-c2nnc(-n3c(/C=C/c4ccc(C)cc4)nc4ccccc4c3=O)o2)cc1
175 µg/mL (≈ 523 µM) | 165 µg/mL (≈ 494 µM) | 80 µg/mL (≈ 239 µM) | 100 µg/mL (≈ 299 µM) | 85 µg/mL (≈ 254 µM) | 90 µg/mL (≈ 269 µM) | COc1ccc(-c2nnc(-n3c(C)nc4ccccc4c3=O)o2)cc1
inactive | inactive | inactive | inactive | inactive | inactive | Cc1ccc(/C=C/c2nc3ccccc3c(=O)n2-c2nnc(-c3ccc(C)cc3)o2)cc1
152 µg/mL (≈ 387 µM) | 143 µg/mL (≈ 364 µM) | 76 µg/mL (≈ 194 µM) | 90 µg/mL (≈ 229 µM) | 80 µg/mL (≈ 204 µM) | 82 µg/mL (≈ 209 µM) | O=c1c2ccccc2nc(/C=C/c2ccccc2)n1-c1nnc(-c2ccccc2)o1
inactive | inactive | inactive | inactive | inactive | inactive | O=c1c2ccccc2nc(/C=C/c2ccc(Cl)cc2)n1-c1nnc(-c2ccccc2)o1
inactive | inactive | inactive | inactive | inactive | inactive | COc1ccc(-c2nnc(-n3c(/C=C/c4ccc(Cl)cc4)nc4ccccc4c3=O)o2)cc1
inactive | inactive | inactive | inactive | inactive | inactive | O=c1c2ccccc2nc(/C=C/c2ccc(Cl)cc2)n1-c1nnc(-c2ccc(Cl)cc2)o1
8 µg/mL (≈ 23.2 µM) | 6 µg/mL (≈ 17.4 µM) | – | – | – | – | Clc1ccccc1C(c1ccccc1)(c1ccccc1)n1ccnc1 [CLOTRIMAZOLE]
inactive | inactive | inactive | inactive | inactive | inactive | Cc1ccc(/C=C/c2nc3ccccc3c(=O)n2-c2nnc(-c3ccc(N(C)C)cc3)o2)cc1
192 µg/mL (≈ 631 µM) | 185 µg/mL (≈ 608 µM) | 120 µg/mL (≈ 394 µM) | 135 µg/mL (≈ 444 µM) | 127 µg/mL (≈ 417 µM) | 130 µg/mL (≈ 427 µM) | Cc1nc2ccccc2c(=O)n1-c1nnc(-c2ccccc2)o1
inactive | inactive | inactive | inactive | inactive | inactive | COc1ccc(-c2nnc(-n3c(/C=C/c4ccccc4)nc4ccccc4c3=O)o2)cc1
inactive | inactive | inactive | inactive | inactive | inactive | Cc1ccc(/C=C/c2nc3ccccc3c(=O)n2-c2nnc(-c3ccc(Cl)cc3)o2)cc1
179 µg/mL (≈ 515 µM) | 170 µg/mL (≈ 489 µM) | 84 µg/mL (≈ 242 µM) | 95 µg/mL (≈ 273 µM) | 88 µg/mL (≈ 253 µM) | 88 µg/mL (≈ 253 µM) | Cc1nc2ccccc2c(=O)n1-c1nnc(-c2ccc(N(C)C)cc2)o1
inactive | inactive | inactive | inactive | inactive | inactive | Cc1ccc(-c2nnc(-n3c(/C=C/c4ccc(Cl)cc4)nc4ccccc4c3=O)o2)cc1
inactive | inactive | inactive | inactive | inactive | inactive | CN(C)c1ccc(-c2nnc(-n3c(/C=C/c4ccc(Cl)cc4)nc4ccccc4c3=O)o2)cc1
141 µg/mL (≈ 330 µM) | 130 µg/mL (≈ 305 µM) | 70 µg/mL (≈ 164 µM) | 86 µg/mL (≈ 201 µM) | 75 µg/mL (≈ 176 µM) | 79 µg/mL (≈ 185 µM) | O=c1c2ccccc2nc(/C=C/c2ccccc2)n1-c1nnc(-c2ccc(Cl)cc2)o1
inactive | inactive | inactive | inactive | inactive | inactive | Cc1ccc(/C=C/c2nc3ccccc3c(=O)n2-c2nnc(-c3ccccc3)o2)cc1
156 µg/mL (≈ 384 µM) | 145 µg/mL (≈ 357 µM) | 81 µg/mL (≈ 199 µM) | 92 µg/mL (≈ 226 µM) | 83 µg/mL (≈ 204 µM) | 85 µg/mL (≈ 209 µM) | Cc1ccc(-c2nnc(-n3c(/C=C/c4ccccc4)nc4ccccc4c3=O)o2)cc1
166 µg/mL (≈ 381 µM) | 155 µg/mL (≈ 356 µM) | 79 µg/mL (≈ 181 µM) | 94 µg/mL (≈ 216 µM) | 83 µg/mL (≈ 191 µM) | 88 µg/mL (≈ 202 µM) | CN(C)c1ccc(-c2nnc(-n3c(/C=C/c4ccccc4)nc4ccccc4c3=O)o2)cc1
180 µg/mL (≈ 565 µM) | 165 µg/mL (≈ 518 µM) | 115 µg/mL (≈ 361 µM) | 138 µg/mL (≈ 434 µM) | 122 µg/mL (≈ 383 µM) | 127 µg/mL (≈ 399 µM) | Cc1ccc(-c2nnc(-n3c(C)nc4ccccc4c3=O)o2)cc1
184 µg/mL (≈ 543 µM) | 172 µg/mL (≈ 508 µM) | 82 µg/mL (≈ 242 µM) | 98 µg/mL (≈ 289 µM) | 84 µg/mL (≈ 248 µM) | 89 µg/mL (≈ 263 µM) | Cc1nc2ccccc2c(=O)n1-c1nnc(-c2ccc(Cl)cc2)o1

SMILES | MIC [1] | MIC [2] | MIC [3] | MIC [4] | MIC [5] | MIC [6]
CCn1cc(C(=O)O)c(=O)c2cc(F)c(N3CCNCC3)cc21 [NORFLOXACIN] | – | – | 4 µg/mL (≈ 12.5 µM) | 8 µg/mL (≈ 25.1 µM) | 5 µg/mL (≈ 15.7 µM) | 6 µg/mL (≈ 18.8 µM)
